This passage reports melting point results from patent US6344476B1, “Inhibition of p38 kinase activity by aryl ureas” (Bayer Corporation, priority 1997, dated 2002).

Turning to `COC(=O)c1cc(C(C)(C)C)sc1NC(=O)Nc1ccccc1` [Example 43, N-(3-Carbomethoxy-5-tert-butyl-2-thienyl)-N′-(phenyl)urea], the melting point lay in the range of 80 to 82 °C.

The molecule `COC(=O)c1cc(C(C)(C)C)sc1NC(=O)Nc1ccc(C)cc1` [Example 44, N-(3-carbomethoxy-5-tert-butyl-2-thienyl)-N′-(4-methylphenyl)urea] registered a melting point of 109 to 111 °C.

Regarding `COC(=O)c1cc(C(C)C)sc1NC(=O)Nc1ccccc1` [Example 41, N-(3-Carbomethoxy-5-isopropyl-2-thienyl)-N′-(phenyl)urea], the melting point is 64 to 65 °C.

In turn, `COC(=O)c1c(NC(=O)Nc2ccc(C)cc2)cc(C(C)(C)C)n1C` [Example 40, N-(N-methyl-2-carbomethoxy-5-tert-butyl-3-pyrrolyl)-N′-(4-methylphenyl)urea] yielded a melting point of 171 to 172 °C.

The molecule `COC(=O)c1sc(C(C)(C)C)cc1NC(=O)Nc1ccc(C)s1` [Example 14, N-(2-Carbomethoxy-5-tert-butyl-3-thienyl)-N′-(5-methyl-2-thienyl)urea] had a melting point of 118 to 120 °C.

Turning to `COC(=O)c1[nH]c(C(C)(C)C)cc1NC(=O)Nc1ccccc1` [Example 37, N-(2-Carbomethoxy-5-tert-butyl-3-pyrrolyl)-N′-(phenyl)urea], the melting point is 262 to 263 °C (dec.).

`CNC(=O)c1sc(C(C)(C)C)cc1NC(=O)Nc1ccc(C(C)C)cc1` [Example 24, N-(2-Methylcarbamoyl-5-tert-butyl-3-thienyl)-N′-(4-isopropylphenyl)urea]: the melting point fell in the range of 113 to 120 °C.

In turn, `CNC(=O)c1sc(C(C)(C)C)cc1NC(=O)Nc1ccc(C)cc1C` [Example 27, N-(2-Methylcarbamoyl-5-tert-butyl-3-thienyl)-N′-(2,4-dimethylphenyl)urea] returned a melting point of 195 to 196 °C.

The molecule `COC(=O)c1[nH]c(C(C)(C)C)cc1NC(=O)Nc1ccc(C)cc1` [Example 38, N-(2carbomethoxy-5-tert-butyl-3-pyrrolyl)-N′-(4-methyl-phenyl)urea] registered a melting point of 257 to 258 °C.

Turning to `COC(=O)c1sc(C(C)(C)C)cc1NC(=O)Nc1ccc(F)cc1` [Example 54, N-(2-carbomethoxy-5-tert-butyl-3-thienyl)-N′-(4-fluorophenyl)urea], the melting point lay within 160 to 162 °C.

As for `CNC(=O)c1sc(C(C)(C)C)cc1NC(=O)Nc1ccc(C)c(Cl)c1` [Example 28, N-(2-Methylcarbamoyl-5-tert-butyl-3-thienyl)-N′-(3-chloro-4-methylphenyl)urea], the melting point fell in the range of 178 to 179 °C.

In turn, `CNC(=O)c1sc(C(C)(C)C)cc1NC(=O)Nc1ccc(C)cc1` [Example 22, N-(2-methylcarbamoyl-5-tert-butyl-3-thienyl)-N′-(4-methylphenyl)urea] had a melting point of 202 to 204 °C.

`Cc1ccc(NC(=O)Nc2cc(C(C)(C)C)sc2CNC(=O)CN)cc1` [Example 51, N-(2-(N-glycylaminomethyl)-5-tert-butyl-3-thienyl)-N′-(4-methylphenyl)urea] returned a melting point of 93 to 96 °C.

In the case of `Cc1ccc(NC(=O)Nc2cc(C(C)(C)C)sc2CNC(=O)CNC(=O)OC(C)(C)C)cc1` [Example 52, N-(2-(N-(N-carbo-tert-butoxyglycyl)aminomethyl)-5-tert-butyl-3-thienyl)-N′-(4-methylphenyl)urea], the melting point lay within 174 to 176 °C.

The molecule `COC(=O)c1oc(C(C)(C)C)cc1NC(=O)Nc1cccc(Cl)c1Cl` [Example 34, N-(2-Carbomethoxy-5-tert-butyl-3-furyl)-N′-(2,3-dichlorophenyl)urea] registered a melting point of 195 to 197 °C.

With `CC(=O)NCc1sc(C(C)(C)C)cc1NC(=O)Nc1ccc(C)cc1` [Example 50, N-(2-(N-Acetylaminomethyl)-5-tert-butyl-3-thienyl)-N′-(4-methylphenyl)urea], the melting point is 203 to 205 °C.

The molecule `CCc1ccc(NC(=O)Nc2cc(C(C)(C)C)sc2C(=O)NC)cc1` [Example 23, N-(2-Methylcarbamoyl-5-tert-butyl-3-thienyl)-N′-(4ethylphenyl)urea] displayed a melting point of 101 to 104 °C.

Regarding `CNC(=O)c1sc(C(C)(C)C)cc1NC(=O)Nc1ccc(C)c(F)c1` [Example 29, N-(2-Methylcarbamoyl-5-tert-butyl-3-thienyl)-N′-(3-fluoro4-methylphenyl)urea], the melting point was 182 to 183 °C.

`CNC(=O)c1oc(C(C)(C)C)cc1NC(=O)Nc1ccc(F)cc1` [Example 36, N-(2-methylcarbamoyl-5-tert-butyl-3-furyl)-N′-(4-fluorophenyl)urea] came in with a melting point of 109 to 111 °C.

On to `COC(=O)c1oc(C(C)(C)C)cc1NC(=O)Nc1ccc(C)cc1` [Example 32, N-(2-carbomethoxy-5-tert-butyl-3-furyl)-N′-(4-methylphenyl)urea], for which the melting point was in the range of 78 to 79 °C.

The molecule `CNC(=O)c1sc(C(C)(C)C)cc1NC(=O)Nc1ccc(F)c(Cl)c1` [Example 30, N-(2-Methylcarbamoyl-5-tert-butyl-3-thienyl)-N′-(3chloro-4-fluorophenyl)urea] showed a melting point of 203 to 204 °C.

As to `COC(=O)c1sc(C(C)C)cc1NC(=O)Nc1ccccc1` [Example 1, N-(2-carbomethoxy-5-isopropyl-3-thienyl)-N′-(phenyl)urea], the melting point was in the range of 108 to 110 °C.

With `CNC(=O)c1[nH]c(C(C)(C)C)cc1NC(=O)Nc1ccc(C)cc1` [Example 113, N-(2-methylcarbamoyl-5-tert-butyl-3-pyrrolyl)-N′-(4-methylphenyl)urea], the melting point was 164 to 166 °C.

`COC(=O)c1cc(C(C)C)sc1NC(=O)Nc1ccc(C)cc1` [Example 42, N-(3-carbomethoxy-5-isopropyl-2-thienyl)-N′-(4-methylphenyl)urea] yielded a melting point of 49 to 51 °C.

`COC(=O)c1sc(C(C)(C)C)cc1NC(=O)Nc1cccc(C)c1` [Example 9, N-(2-Carbomethoxy-5-tert-butyl-3-thienyl)-N′-(3-methylphenyl)urea]: the melting point is 70 to 72 °C.

`CNC(=O)c1sc(C(C)(C)C)cc1NC(=O)Nc1ccc(F)cc1` [Example 25, N-(2-methylcarbamoyl-5-tert-butyl-3-thienyl)-N′-(4-fluorophenyl)urea] registered a melting point of 203 to 204 °C.

Usually melting point stands for the temperature of the solid-liquid transition.
